Assay results published in patent US20210330611A1, “THERAPY FOR NEUROLOGICAL DISEASES/DISORDERS” (priority 2020, published 2021).
Structures can show the parent of a compound that is named as a salt. Where two headings read alike, the source gives them in different places. Where a SMILES comes first, the peptide text is derived from it.

Tests used:
[1] = test system: fibrin-induced microglia activation; test: Image-based assay of fibrin-induced microglia activation (HTS and dose response); assay type: cell-based, rat; conditions: primary microglia HTS, fibrin stimulation, compounds at 10 μM; for inhibition at 10 µM: Rattus norvegicus, Microglia, read-out: Fibrin % inhibition
[2] = test system: LPS-induced microglia activation; test: Image-based assay of LPS-induced microglia activation (HTS and dose response); assay type: cell-based, rat; conditions: primary microglia HTS, LPS stimulation, compounds at 10 μM; for inhibition at 10 µM: Rattus norvegicus, Microglia, read-out: LPS % inhibition
[3] = test system: fibrin- and LPS-induced microglia activation; test: cells; assay type: cell-based, rat; conditions: quadrant by fibrin and LPS inhibition, HTS at 10 μM
[4] = test system: primary rat microglia
[5] = test system: primary rat microglia; test: Cell toxicity (dead cells, size <150 μm2) in coated fibrin (cFib) assay; conditions: primary microglia HTS, fibrin assay, dead cells (size <150 μm2);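 also: share of dead cells sized under 150 µm2 at 10 µM in fibrin-stimulated microglia HTS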

Compound	inhibition at 10 µM [1] [%]	inhibition at 10 µM [2] [%]	Quadrant (FIG. 5b) [3]	LPS % cell toxicity ([4]; rat) [%]	Fibrin % cell toxicity [5] [%]	Fibrin % inhibition [1] [%]	LPS % inhibition [2] [%]	LPS % cell toxicity [4] [%]
C=CC[C@]1(O)CC[C@H]2[C@@H]3CCC4=CC(=O)CCC4=C3C=C[C@@]21C [Altrenogest]	6	15	Q4	0	1			
CCN(CCCc1ccccc1)CCCc1ccccc1 [Alverine]	-17	6	Q4	0	0			
Nc1c(Br)cc(Br)cc1CN[C@H]1CC[C@H](O)CC1 [Ambroxol Hydrochloride]	-19	9	Q4	0	0			
NCC[C@H](O)C(=O)N[C@@H]1C[C@H](N)[C@@H](O[C@H]2O[C@H](CN)[C@@H](O)[C@H](O)[C@H]2O)[C@H](O)[C@H]1O[C@H]1O[C@H](CO)[C@@H](O)[C@H](N)[C@H]1O.O=S(=O)(O)O.O=S(=O)(O)O [Amikacin Sulfate]			Q4		1	3	1	0
N=C(N)NN [Aminoguanidine]	-25	12	Q4	0	0			
Nc1ccc(C(=O)NCC(=O)O)cc1 [Aminohippuric Acid]	-7	16	Q4	1	1			
NCC(O)CC(=O)O (stereo not drawn) [Aminohydroxybutyric Acid]			Q4		1	−4	17	0
CC(CC(C(N)=O)(c1ccccc1)c1ccccc1)N(C)C (stereo not drawn) [Aminopentamide Sulfate]	3	12	Q4	0	1			
Cc1c(N(C)C)c(=O)n(-c2ccccc2)n1C [Aminophenazone]	-41	20	Q4	1	1			
Nc1nc(N)c2nc(CNc3ccc(C(=O)N[C@@H](CCC(=O)O)C(=O)O)cc3)cnc2n1 [Aminopterin]	-12	17	Q4	0	1			
Nc1nccs1 [Aminothiazole]	-31	17	Q4	1	1			
Cc1ccc(/N=C/N(C)/C=N/c2ccc(C)cc2C)c(C)c1 [Amitraz]	-18	9	Q4	0	0			
CC(C)c1ccc2oc3nc(N)c(C(=O)O)cc3c(=O)c2c1 [Amlexanox]	-17	-4	Q4	0	0			
CCC(C)(C)c1ccc(CC(C)CN2C[C@@H](C)O[C@@H](C)C2)cc1 (stereo partly drawn) [Amorolfine]	6	22	Q4	0	1			
CC1(C)S[C@@H]2[C@H](NC(=O)[C@H](N)c3ccccc3)C(=O)N2[C@H]1C(=O)O [Ampicillin]	1	15	Q4	0	1			
CCCc1ncc(C[n+]2ccccc2C)c(N)n1 [Amprolium]	-10	8	Q4	0	1			
Nc1cc(-c2ccncc2)c[nH]c1=O [Amrinone, Inamrinone]			Q4		1	1	18	0
COc1ccc(C2C(=O)c3ccccc3C2=O)cc1 [Anisindione]	-15	13	Q4	0	0			
Br.CN1[C@H]2C[C@H](OC(=O)[C@H](CO)c3ccccc3)C[C@@H]1[C@@H](O)C2 [Anisodamine Hydrobromide]			Q4		1	−41	4	0
c1ccc(CN(CC2=NCCN2)c2ccccc2)cc1 [Antazoline]	-2	17	Q4	1	1			
O=C1c2c(O)cccc2Cc2cccc(O)c21 [Anthralin]	-10	13	Q4	1	1			
Cc1cc(=O)n(-c2ccccc2)n1C [Antipyrine]	-8	13	Q4	1	0			
C[C@@H](O[C@H]1OCCN(Cc2n[nH]c(=O)[nH]2)[C@H]1c1ccc(F)cc1)c1cc(C(F)(F)F)cc(C(F)(F)F)c1 [Aprepitant]	20	1	Q4	0	1			
NC(=O)C[S@@+]([O-])C(c1ccccc1)c1ccccc1 [Armodafinil]	-10	19	Q4	1	0			
Nc1ccc([As](=O)(O)O)cc1 [Arsanilic Acid]			Q4	0	0	−42	12	
C[C@@H]1CC[C@H]2[C@@H](C)C(=O)O[C@@H]3O[C@@]4(C)CC[C@@H]1[C@]32OO4 [Artemisinin]	-25	12	Q4	0	0			
C[C@H]1[C@@H](O)O[C@@H]2O[C@@]3(C)CC[C@H]4[C@H](C)CC[C@@H]1[C@@]24OO3 [Artenimol]	-56	11	Q4	0	0			
COC(=O)[C@H](Cc1ccccc1)NC(=O)[C@@H](N)CC(=O)O [Aspartame] (H-Asp-Phe-OMe)	-15	7	Q4	0	1			
COC(=O)N[C@H](C(=O)N[C@@H](Cc1ccccc1)[C@@H](O)CN(Cc1ccc(-c2ccccn2)cc1)NC(=O)[C@@H](NC(=O)OC)C(C)(C)C)C(C)(C)C [Atazanavir]	-17	13	Q4	1	0			
O=C1C(O)=C([C@H]2CC[C@H](c3ccc(Cl)cc3)CC2)C(=O)c2ccccc21 [Atovaquone]	-15	13	Q4	0	0			
